Source: PubChem BioAssay (NCI)
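At the GI50, growth is halved. At the TGI there is no net growth.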

Assays:
Test in all cases: DTP human tumour cell line panel, 384-well format
NCI-H23 lung = system: NCI-H23 lung
UACC-257 melanoma = system: UACC-257 melanoma
HL-60(TB) leukemia = system: HL-60(TB) leukemia
A498 renal = system: A498 renal
OVCAR-8 ovarian = system: OVCAR-8 ovarian
SF-268 CNS = system: SF-268 CNS
HCC-2998 colon = system: HCC-2998 colon
T-47D breast = system: T-47D breast
MCF7 breast = system: MCF7 breast
U251 glioblastoma = system: U251 glioblastoma
TK-10 renal = system: TK-10 renal
OVCAR-4 ovarian = system: OVCAR-4 ovarian
PC-3 prostate = system: PC-3 prostate
HCT-15 colon = system: HCT-15 colon
KM12 colon = system: KM12 colon
M14 melanoma = system: M14 melanoma
RXF 393 renal = system: RXF 393 renal
NCI/ADR-RES ovarian = system: NCI/ADR-RES ovarian
NCI-H460 NSCLC = system: NCI-H460 NSCLC
SK-MEL-28 melanoma = system: SK-MEL-28 melanoma
NCI-H322M lung = system: NCI-H322M lung
SN12C renal = system: SN12C renal
NCI-H226 lung = system: NCI-H226 lung
SR leukemia = system: SR leukemia
MDA-MB-435 melanoma = system: MDA-MB-435 melanoma
HOP-92 NSCLC = system: HOP-92 NSCLC
SK-MEL-2 melanoma = system: SK-MEL-2 melanoma
HOP-62 NSCLC = system: HOP-62 NSCLC
NCI-H522 lung = system: NCI-H522 lung
MOLT-4 leukemia = system: MOLT-4 leukemia
LOX IMVI melanoma = system: LOX IMVI melanoma
786-0 renal = system: 786-0 renal
EKVX NSCLC = system: EKVX NSCLC
SK-MEL-5 melanoma = system: SK-MEL-5 melanoma
SW-620 colon = system: SW-620 colon
SF-539 CNS = system: SF-539 CNS
MALME-3M melanoma = system: MALME-3M melanoma
IGROV1 ovarian = system: IGROV1 ovarian
K-562 leukemia = system: K-562 leukemia
HCT-116 colon = system: HCT-116 colon
CCRF-CEM leukemia = system: CCRF-CEM leukemia
SK-OV-3 ovarian = system: SK-OV-3 ovarian
DU-145 prostate = system: DU-145 prostate
UACC-62 melanoma = system: UACC-62 melanoma
RPMI-8226 leukemia = system: RPMI-8226 leukemia
OVCAR-5 ovarian = system: OVCAR-5 ovarian
COLO 205 colon = system: COLO 205 colon

`O=C(/C=C\n1cnc(-c2cc(C(F)(F)F)cc(C(F)(F)F)c2)n1)NNc1cnccn1` showed a GI50 (NCI-H23 lung) of 0.0548 µM, a TGI (NCI-H23 lung) of 0.889 µM and a GI50 (UACC-257 melanoma) of 0.977 µM. The TGI (UACC-257 melanoma) was 8.46 µM, the GI50 (HL-60(TB) leukemia) was 0.041 µM and the TGI (HL-60(TB) leukemia) was 0.185 µM. For the same molecule, the GI50 (A498 renal) was 0.0728 µM, the TGI (A498 renal) was 1.54 µM and the GI50 (OVCAR-8 ovarian) was 0.0706 µM. For the same molecule, the TGI (OVCAR-8 ovarian) was 0.936 µM, the GI50 (SF-268 CNS) was 0.0407 µM and the TGI (SF-268 CNS) was 0.31 µM. It also gave a GI50 (HCC-2998 colon) of 0.0463 µM, a TGI (HCC-2998 colon) of 0.53 µM and a GI50 (T-47D breast) of 0.165 µM. The TGI (T-47D breast) was 4.11 µM, the GI50 (MCF7 breast) was 0.058 µM and the TGI (MCF7 breast) was 2.15 µM. It also gave a GI50 (U251 glioblastoma) of 0.0889 µM, a TGI (U251 glioblastoma) of 0.816 µM and a GI50 (TK-10 renal) of 0.126 µM. The TGI (TK-10 renal) was 13.2 µM, the GI50 (OVCAR-4 ovarian) was 0.316 µM and the TGI (OVCAR-4 ovarian) was 1.04 µM. It also gave a GI50 (PC-3 prostate) of 0.0576 µM, a TGI (PC-3 prostate) of 0.999 µM and a GI50 (HCT-15 colon) of 0.152 µM. It also gave a TGI (HCT-15 colon) of 1.31 µM, a GI50 (KM12 colon) of 0.442 µM and a TGI (KM12 colon) of 3.86 µM. For the same molecule, the GI50 (M14 melanoma) was 0.353 µM, the TGI (M14 melanoma) was 1.67 µM and the GI50 (RXF 393 renal) was 0.0216 µM. For the same molecule, the TGI (RXF 393 renal) was 0.0827 µM, the GI50 (NCI/ADR-RES ovarian) was 0.0891 µM and the TGI (NCI/ADR-RES ovarian) was 1.57 µM. It also gave a GI50 (NCI-H460 NSCLC) of 0.0483 µM, a TGI (NCI-H460 NSCLC) of 0.337 µM and a GI50 (SK-MEL-28 melanoma) of 0.192 µM. The TGI (SK-MEL-28 melanoma) was 1.38 µM, the GI50 (NCI-H322M lung) was 0.213 µM and the TGI (NCI-H322M lung) was 5.26 µM. For the same molecule, the GI50 (SN12C renal) was 0.655 µM, the TGI (SN12C renal) was 5.87 µM and the GI50 (NCI-H226 lung) was 0.0338 µM. It also gave a TGI (NCI-H226 lung) of 0.858 µM, a GI50 (SR leukemia) of 0.0137 µM and a TGI (SR leukemia) of 0.0298 µM. It also gave a GI50 (MDA-MB-435 melanoma) of 0.177 µM, a TGI (MDA-MB-435 melanoma) of 0.721 µM and a GI50 (HOP-92 NSCLC) of 0.194 µM. It also gave a TGI (HOP-92 NSCLC) of 4.36 µM, a GI50 (SK-MEL-2 melanoma) of 0.119 µM and a TGI (SK-MEL-2 melanoma) of 0.282 µM. It also gave a GI50 (HOP-62 NSCLC) of 0.166 µM, a TGI (HOP-62 NSCLC) of 1.17 µM and a GI50 (NCI-H522 lung) of 0.0611 µM. For the same molecule, the TGI (NCI-H522 lung) was 0.304 µM, the GI50 (MOLT-4 leukemia) was 0.0163 µM and the TGI (MOLT-4 leukemia) was 0.0311 µM. For the same molecule, the GI50 (LOX IMVI melanoma) was 0.144 µM, the TGI (LOX IMVI melanoma) was 0.555 µM and the GI50 ([…]-0 renal) was 0.0598 µM. It also gave a TGI (786-0 renal) of 3.31 µM, a GI50 (EKVX NSCLC) of 1.34 µM and a TGI (EKVX NSCLC) of 13.1 µM. For the same molecule, the GI50 (SK-MEL-5 melanoma) was 0.143 µM, the TGI (SK-MEL-5 melanoma) was 0.675 µM and the GI50 (SW-620 colon) was 0.0818 µM. It also gave a TGI (SW-620 colon) of 7.1 µM, a GI50 (SF-539 CNS) of 0.0262 µM and a TGI (SF-539 CNS) of 0.086 µM. It also gave a GI50 (MALME-3M melanoma) of 0.142 µM, a TGI (MALME-3M melanoma) of 1.17 µM and a GI50 (IGROV1 ovarian) of 0.424 µM. It also gave a TGI (IGROV1 ovarian) of 7.51 µM, a GI50 (K-562 leukemia) of 0.0417 µM and a TGI (K-562 leukemia) of 0.289 µM. It also gave a GI50 (HCT-116 colon) of 0.0608 µM, a TGI (HCT-116 colon) of 0.504 µM and a GI50 (CCRF-CEM leukemia) of 0.091 µM. For the same molecule, the TGI (CCRF-CEM leukemia) was 0.39 µM, the GI50 (SK-OV-3 ovarian) was 0.919 µM and the TGI (SK-OV-3 ovarian) was 13.6 µM. The GI50 (DU-145 prostate) was 0.274 µM, the TGI (DU-145 prostate) was 1.22 µM and the GI50 (UACC-62 melanoma) was 0.106 µM. The TGI (UACC-62 melanoma) was 0.418 µM, the GI50 (RPMI-8226 leukemia) was 0.0196 µM and the TGI (RPMI-8226 leukemia) was 0.0649 µM. For the same molecule, the GI50 (OVCAR-5 ovarian) was 0.342 µM, the TGI (OVCAR-5 ovarian) was 9.93 µM and the GI50 (COLO 205 colon) was 0.0842 µM. The TGI (COLO 205 colon) was 4.6 µM.
